Results: a melting point compilation (Tetko et al.; mined from patent text by program, amines drawn as free bases though some values may be those of a salt)

melting point [°C]	Compound
49	C=C(C)C(=O)OCCCOc1ccc(-c2cc(OC(=O)C(=C)C)cc(-c3ccc(OCCCOC(=O)C(=C)C)cc3)c2)cc1
136 to 137	CC(C)(C)c1ccc(CCC(O)CCC2CCCCC2)cc1NC(=O)CC1c2ccccc2Oc2ccccc21 (stereo unspecified)
50 to 52	OC(CCCCCCCCCCOCc1ccccc1)c1ccc(OCc2ccccc2)c(OCc2ccccc2)c1 (stereo unspecified)
176 to 178	Cc1ncccc1Cn1nnnc1-c1ccc(Cl)c(Cl)c1
44 to 46	COCC(C)N(C(=O)CCl)c1c(C)cccc1C (stereo unspecified)
188 to 189	CCS(=O)(=O)Nc1cc(-c2ncnc(NOC)c2Cl)c(F)cc1C#N
167 to 168	N/C(=C1/Sc2ccccc2C1=O)c1ccccc1Cl
88	CCSC1=C(C#N)C(c2ccccc2)(c2ccccc2)C(=O)N1CCCNC(=O)OC(C)(C)C
87 to 97	CC(=O)C(O)C1OC(n2cnc3c(NC4CCCc5ccccc54)ncnc32)C(O)C1O (stereo unspecified)
173 to 175	CCOCc1nc2c(N)ncc(C)c2n1CCCCNS(C)(=O)=O
125 to 130	Cc1ccc(-c2ccc(Cl)c(C(=O)NCC34CC5CC(CC(C5)C3)C4)c2)c(C(=O)O)n1
123 to 125	CC1c2cccc3c2N(CC3)c2ccccc2N1C(=O)CBr (stereo unspecified)
229 to 232	COc1ccc(N2CCN(C)CC2)c2c1CC[C@H](NC(=O)c1ccc(N3CCOCC3)cc1)C2
151	COc1ccc(C(=O)Nc2ccc3ccc(Oc4cccc(F)c4)nc3n2)cc1
178 to 180	COc1c(N2CC(C)C(N)C(C)C2)c(F)cc2c(=O)c(C(=O)O)cn(C3CC3)c12 (stereo unspecified)
165 to 170	Cc1c(-c2ccccc2)oc2c(S(=O)(=O)Cl)cccc2c1=O
275 to 277	C[C@@H]1CN(Cc2ccc(F)cc2)CCN1C(=O)/C=C/c1ccc(Cl)cc1NC(=O)N1CCNC1=O
118 to 119	CCOC(Cc1ccc(OCCn2c(=O)sc3cc(C(=O)c4ccccc4)ccc32)cc1)C(=O)OC (stereo unspecified)
166 to 168	O=C(Cn1c(-c2ccc(F)cc2)nc2cccnc21)OCCO
244	CCOC(=O)C1=C(C)Nc2nc(N)nc(N)c2C1c1ccc(Cl)c(Cl)c1 (stereo unspecified)
137 to 140	COC(=O)C(C(=O)OC)c1cccc2c1NC(=O)C2=O

melting point [°C]	Compound
242 to 243	CO/C=C1/C(=O)NC(=O)c2cc(Br)ccc21
86	CCN1CC2CCCC2C1=C[N+](=O)[O-] (stereo unspecified)
174 to 175	COc1ccc(Nc2nccc(-c3ccncc3)n2)cc1
176 to 177	COC(=O)c1cc([N+](=O)[O-])ccc1-c1ccc([N+](=O)[O-])cc1C(=O)OC
154 to 157	CCCCCS(=O)(=O)NC(=O)/C=C/c1cc(OC2CCOCC2)nn1Cc1ccc(Cl)cc1Cl
162	CCC(C(=O)c1ccc(Cl)cc1)n1ncn(-c2ccc(N3CCN(c4nc5ccccc5s4)CC3)cc2)c1=O (stereo unspecified)
103 to 105	CCCCc1oc2ccccc2c1C(=O)NCc1ccc2c(-c3ccc(C)cc3)c(O)ccc2c1
211 to 212	O=C1NC(=O)c2ccc(N3CCCCC3)cc2/C1=C/Nc1ccc(CN2CCCCC2)cc1
182 to 183	CS(=O)(=O)c1ccc(CC(=O)c2ccc(F)cc2)cc1
198	COc1ccc(-c2nc3cnccc3[nH]2)c(OCC#N)c1
156 to 159	O=C(O)Cn1cc(Cc2nc3c(F)c(F)cc(F)c3s2)c2ccc(-c3ccccc3)cc21
147 to 149	N#CCNC(=O)c1ccc([N+](=O)[O-])cc1
185 to 186	O=C(Cn1c(-c2ccc(Cl)cc2)nc2cccnc21)N1CCN(c2cccc(C(F)(F)F)c2)CC1
78 to 79	O=c1cc(N2CCOc3ccccc32)oc2c1ccc1ccccc12
273 to 275	Cc1ccc(NC(=O)NCc2ccc3c(c2)CN(C2CCC(=O)NC2=O)C3=O)cc1C(F)(F)F (stereo unspecified)
45	O=C(CC[C@@H](C(=O)OCc1ccccc1)n1c2ccccc2c2ccccc21)OCCOC(=O)c1ccc(NC(=O)OCc2ccccc2)cc1
174 to 176	CCN(CC)c1ccc(C2(c3ccc(N(C)C)cc3)OC(=O)c3c(Cl)c(Cl)c(Cl)c(Cl)c32)c(N(CC)CC)c1 (stereo unspecified)
72 to 75	N#Cc1cc(/C=C/C(c2cc(Cl)c(Cl)c(Cl)c2)C(F)(F)F)ccc1-n1cnc(N)n1 (stereo unspecified)
120 to 130	O=C(O)CCCSc1ncnc2ncn(Cc3ccc4c(c3)Nc3nccnc3S4)c12
164 to 165	COC(=O)c1cccc(-c2nc(COc3ccc(CON4CC(C=O)=CN4c4ccccc4)cc3OC)c(C)o2)c1
157 to 161	C=CC12COc3cc(Cl)ccc3C1=NN(C(=O)Nc1ccc(C(F)(F)F)cc1)C2 (stereo unspecified)

melting point [°C]	Compound
139 to 140	CCOC(=O)c1cc([N+](=O)[O-])ccc1OCc1ccc2ccccc2n1
122 to 128	Cc1ccccc1OCC(O)CNC(C)(C)COc1ccc(C(N)=O)cn1 (stereo unspecified)
> 300	O=c1oc2cc(O)ccc2c(O)c1C1=CCOc2oc3ccccc3c(=O)c21
116 to 118	CCc1c(Cl)nc(NC=O)nc1Cl
103 to 104	CCN1C(=O)SC(Cc2ccc(N)cc2)C1=O (stereo unspecified)
188 to 189	CCCCCCCCCCNC(=O)c1cc(N)cc(C(=O)NCCCCCCCCCC)c1
145 to 153	O=C1C2C3CCC(C4CC43)C2C(=O)N1c1cc(Cl)cc(Cl)c1 (stereo unspecified)
192 to 194	OC(c1ccc(Br)cc1)(c1ccc(Br)cc1)c1ncc[nH]1
134 to 135	O=C(NCCO)c1ccc([N+](=O)[O-])cc1
88 to 90	CCCCC1CCCC2=C1C(=O)c1cc(C)c(C)cc1C2=O (stereo unspecified)
274	Clc1cc(Cl)cc(-c2nc(Cl)c3ccccc3n2)c1
137	NC1N=C(c2ccccc2)C=CS1 (stereo unspecified)
126	O=C1N(c2ccc(Cl)cc2Cl)Cc2cnc(Nc3ccccc3)nc2N1c1cccc(CCN2CCNCC2)c1
157 to 161	C[C@@H]1CCCN1CCCOc1ccc(-c2cc(-c3ccccn3)c(=O)[nH]n2)cc1
173 to 175	CCCCc1nc(Cl)c(CO)n1Cc1ccc(-c2nc3ccccn3c2C(=O)O)cc1
152 to 154	O=C(Nc1ccc(CCN2C(=O)[C@H]3CCC[C@H]3N(C(=O)CN3C(=O)c4ccccc4C3=O)c3ccccc32)cc1)OCc1ccccc1 (relative stereo)
75 to 76	O=C(NCCCCCCCCCCCCO)OC1CCN(C(=O)Oc2ccc(Oc3ccccc3)cc2)CC1
182	COc1ncc(NC(=S)NC(=O)c2ccccc2)c(OC)n1
106 to 108	CC(C)CNS(=O)(=O)c1ccccc1CCOS(C)(=O)=O
230 to 233	CCNC(=O)Nc1nc2cc(-c3cccnc3)ccn2n1
86 to 89	CCCCOCCC(C)CCCC(C)(C)c1cc(O)c(C(C)(C)CCCC(C)CCOCCCC)cc1O (stereo unspecified)

Compound	melting point [°C]
O=S1(=O)c2cccc3cccc(c23)N1CCCN1CC=C(c2ccccc2)CC1	88
NC1=NCC(COc2cccc(C(F)(F)F)c2)O1 (stereo unspecified)	10
c1ccc(-c2cn([C@H]3CN4CCC3CC4)nn2)cc1	132
